Results as given in patent publication US10906873B2, “Substituted cyclic amides as herbicides” (FMC Corporation, priority 2015, dated 2021).

Tested on: kochia (Kochia scoparia)
Experiment: Test A preemergence, kochia
Assay type: in vivo
Details: 125 g ai/ha, 0 to 100 scale
How it was run: (§1)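 Visual injury ratings, 0 = no effect to 100 = complete control, made versus untreated controls after about 10 d in greenhouse. Chemicals formulated in solvent mixture containing surfactant were sprayed on loam-sand soil after seeding (preemergence) or onto plants at one- to two-leaf stage, 2-10 cm (postemergence).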

Row | SMILES | Plant response rating, Kochia
1 | O=C1NCC(C#Cc2cccc(Cl)c2)C1C(=O)Nc1ccccc1F (stereo not drawn) [Compound 25, 4-[2-(3-chlorophenyl)ethynyl]N-(2-fluorophenyl)-2-oxo-3-pyrrolidinecarboxamide] | 0

Same assay, conditions: 500 g ai/ha, 0 to 100 scale

Row | SMILES | Plant response rating, Kochia
2 | O=C1NCC(C#Cc2cccc(Cl)c2)C1C(=O)Nc1ccccc1F (stereo not drawn) [Compound 25, 4-[2-(3-chlorophenyl)ethynyl]N-(2-fluorophenyl)-2-oxo-3-pyrrolidinecarboxamide] | 60

Tested on: barnyardgrass (Echinochloa crus-galli)
Experiment: Test B flooded paddy test, barnyardgrass
Assay type: in vivo
Details: Flood, 250 g ai/ha; scale of 0 to 100 where 0 is no effect and 100 is complete control; 13 to 15 d
How it was run: (§2)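 Ratings use a 0-100 visual scale, where 100 is complete control, and compare treated plants with controls after 13 to 15 d of greenhouse growth. Compound went straight into paddy water kept 3 cm over the soil surface, applied to seedlings at the 2-leaf stage.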

Row | SMILES | Plant response rating, Barnyardgrass
3 | O=C1NCC(C#Cc2cccc(Cl)c2)C1C(=O)Nc1ccccc1F (stereo not drawn) [Compound 25, 4-[2-(3-chlorophenyl)ethynyl]N-(2-fluorophenyl)-2-oxo-3-pyrrolidinecarboxamide] | 0

Tested on: ragweed (common ragweed, Ambrosia elatior)
Experiment: Test A preemergence, ragweed
Assay type: in vivo
Details: 125 g ai/ha, 0 to 100 scale
How it was run: as §1

Row | SMILES | Plant response rating, Ragweed
4 | O=C1NCC(C#Cc2cccc(Cl)c2)C1C(=O)Nc1ccccc1F (stereo not drawn) [Compound 25, 4-[2-(3-chlorophenyl)ethynyl]N-(2-fluorophenyl)-2-oxo-3-pyrrolidinecarboxamide] | 0

Same assay, conditions: 500 g ai/ha, 0 to 100 scale

Row | SMILES | Plant response rating, Ragweed
5 | O=C1NCC(C#Cc2cccc(Cl)c2)C1C(=O)Nc1ccccc1F (stereo not drawn) [Compound 25, 4-[2-(3-chlorophenyl)ethynyl]N-(2-fluorophenyl)-2-oxo-3-pyrrolidinecarboxamide] | 0

Tested on: ryegrass, It. (Italian ryegrass, Lolium multiflorum)
Experiment: Test A preemergence, ryegrass, It.
Assay type: in vivo
Details: 125 g ai/ha, 0 to 100 scale
How it was run: as §1

Row | SMILES | Plant response rating, Ryegrass, It.
6 | O=C1NCC(C#Cc2cccc(Cl)c2)C1C(=O)Nc1ccccc1F (stereo not drawn) [Compound 25, 4-[2-(3-chlorophenyl)ethynyl]N-(2-fluorophenyl)-2-oxo-3-pyrrolidinecarboxamide] | 0

Same assay, conditions: 500 g ai/ha, 0 to 100 scale

Row | SMILES | Plant response rating, Ryegrass, It.
7 | O=C1NCC(C#Cc2cccc(Cl)c2)C1C(=O)Nc1ccccc1F (stereo not drawn) [Compound 25, 4-[2-(3-chlorophenyl)ethynyl]N-(2-fluorophenyl)-2-oxo-3-pyrrolidinecarboxamide] | 0

Tested on: ragweed (common ragweed, Ambrosia elatior)
Experiment: Test A postemergence, ragweed
Assay type: in vivo
Details: 125 g ai/ha, 0 to 100 scale
How it was run: as §1

Row | SMILES | Plant response rating, Ragweed
8 | O=C1NCC(C#Cc2cccc(Cl)c2)C1C(=O)Nc1ccccc1F (stereo not drawn) [Compound 25, 4-[2-(3-chlorophenyl)ethynyl]N-(2-fluorophenyl)-2-oxo-3-pyrrolidinecarboxamide] | 0

Same assay, conditions: 500 g ai/ha, 0 to 100 scale

Row | SMILES | Plant response rating, Ragweed
9 | O=C1NCC(C#Cc2cccc(Cl)c2)C1C(=O)Nc1ccccc1F (stereo not drawn) [Compound 25, 4-[2-(3-chlorophenyl)ethynyl]N-(2-fluorophenyl)-2-oxo-3-pyrrolidinecarboxamide] | 0

Tested on: ryegrass, It. (Italian ryegrass, Lolium multiflorum)
Experiment: Test A postemergence, ryegrass, It.
Assay type: in vivo
Details: 125 g ai/ha, 0 to 100 scale
How it was run: as §1

Row | SMILES | Plant response rating, Ryegrass, It.
10 | O=C1NCC(C#Cc2cccc(Cl)c2)C1C(=O)Nc1ccccc1F (stereo not drawn) [Compound 25, 4-[2-(3-chlorophenyl)ethynyl]N-(2-fluorophenyl)-2-oxo-3-pyrrolidinecarboxamide] | 0

Same assay, conditions: 500 g ai/ha, 0 to 100 scale

Row | SMILES | Plant response rating, Ryegrass, It.
11 | O=C1NCC(C#Cc2cccc(Cl)c2)C1C(=O)Nc1ccccc1F (stereo not drawn) [Compound 25, 4-[2-(3-chlorophenyl)ethynyl]N-(2-fluorophenyl)-2-oxo-3-pyrrolidinecarboxamide] | 0

Tested on: blackgrass (Alopecurus myosuroides)
Experiment: Test A postemergence, blackgrass
Assay type: in vivo
Details: 125 g ai/ha, 0 to 100 scale
How it was run: as §1

Row | SMILES | Plant response rating, Blackgrass
12 | O=C1NCC(C#Cc2cccc(Cl)c2)C1C(=O)Nc1ccccc1F (stereo not drawn) [Compound 25, 4-[2-(3-chlorophenyl)ethynyl]N-(2-fluorophenyl)-2-oxo-3-pyrrolidinecarboxamide] | 0

Same assay, conditions: 500 g ai/ha, 0 to 100 scale

Row | SMILES | Plant response rating, Blackgrass
13 | O=C1NCC(C#Cc2cccc(Cl)c2)C1C(=O)Nc1ccccc1F (stereo not drawn) [Compound 25, 4-[2-(3-chlorophenyl)ethynyl]N-(2-fluorophenyl)-2-oxo-3-pyrrolidinecarboxamide] | 0

Tested on: foxtail, giant (giant foxtail, Setaria faberii)
Experiment: Test A preemergence, foxtail, giant
Assay type: in vivo
Details: 125 g ai/ha, 0 to 100 scale
How it was run: as §1

Row | SMILES | Plant response rating, Foxtail, Giant
14 | O=C1NCC(C#Cc2cccc(Cl)c2)C1C(=O)Nc1ccccc1F (stereo not drawn) [Compound 25, 4-[2-(3-chlorophenyl)ethynyl]N-(2-fluorophenyl)-2-oxo-3-pyrrolidinecarboxamide] | 40

Same assay, conditions: 500 g ai/ha, 0 to 100 scale

Row | SMILES | Plant response rating, Foxtail, Giant
15 | O=C1NCC(C#Cc2cccc(Cl)c2)C1C(=O)Nc1ccccc1F (stereo not drawn) [Compound 25, 4-[2-(3-chlorophenyl)ethynyl]N-(2-fluorophenyl)-2-oxo-3-pyrrolidinecarboxamide] | 90

Tested on: kochia (Kochia scoparia)
Experiment: Test A postemergence, kochia
Assay type: in vivo
Details: 125 g ai/ha, 0 to 100 scale
How it was run: as §1

Row | SMILES | Plant response rating, Kochia
16 | O=C1NCC(C#Cc2cccc(Cl)c2)C1C(=O)Nc1ccccc1F (stereo not drawn) [Compound 25, 4-[2-(3-chlorophenyl)ethynyl]N-(2-fluorophenyl)-2-oxo-3-pyrrolidinecarboxamide] | 0

Same assay, conditions: 500 g ai/ha, 0 to 100 scale

Row | SMILES | Plant response rating, Kochia
17 | O=C1NCC(C#Cc2cccc(Cl)c2)C1C(=O)Nc1ccccc1F (stereo not drawn) [Compound 25, 4-[2-(3-chlorophenyl)ethynyl]N-(2-fluorophenyl)-2-oxo-3-pyrrolidinecarboxamide] | 0

Tested on: ducksalad (Heteranthera limosa)
Experiment: Test B flooded paddy test, ducksalad
Assay type: in vivo
Details: Flood, 250 g ai/ha; scale of 0 to 100 where 0 is no effect and 100 is complete control; 13 to 15 d
How it was run: as §2

Row | SMILES | Plant response rating, Ducksalad
18 | O=C1NCC(C#Cc2cccc(Cl)c2)C1C(=O)Nc1ccccc1F (stereo not drawn) [Compound 25, 4-[2-(3-chlorophenyl)ethynyl]N-(2-fluorophenyl)-2-oxo-3-pyrrolidinecarboxamide] | 85

Tested on: sedge, umbrella (small-flower umbrella sedge, Cyperus difformis)
Experiment: Test B flooded paddy test, sedge, umbrella
Assay type: in vivo
Details: Flood, 250 g ai/ha; scale of 0 to 100 where 0 is no effect and 100 is complete control; 13 to 15 d
How it was run: as §2

Row | SMILES | Plant response rating, Sedge, Umbrella
19 | O=C1NCC(C#Cc2cccc(Cl)c2)C1C(=O)Nc1ccccc1F (stereo not drawn) [Compound 25, 4-[2-(3-chlorophenyl)ethynyl]N-(2-fluorophenyl)-2-oxo-3-pyrrolidinecarboxamide] | 0

Tested on: corn (Zea mays)
Experiment: Test A postemergence, corn
Assay type: in vivo
Details: 125 g ai/ha, 0 to 100 scale
How it was run: as §1

Row | SMILES | Plant response rating, Corn
20 | O=C1NCC(C#Cc2cccc(Cl)c2)C1C(=O)Nc1ccccc1F (stereo not drawn) [Compound 25, 4-[2-(3-chlorophenyl)ethynyl]N-(2-fluorophenyl)-2-oxo-3-pyrrolidinecarboxamide] | 0

Same assay, conditions: 500 g ai/ha, 0 to 100 scale

Row | SMILES | Plant response rating, Corn
21 | O=C1NCC(C#Cc2cccc(Cl)c2)C1C(=O)Nc1ccccc1F (stereo not drawn) [Compound 25, 4-[2-(3-chlorophenyl)ethynyl]N-(2-fluorophenyl)-2-oxo-3-pyrrolidinecarboxamide] | 0

Tested on: pigweed (Amaranthus retroflexus)
Experiment: Test A postemergence, pigweed
Assay type: in vivo
Details: 125 g ai/ha, 0 to 100 scale
How it was run: as §1

Row | SMILES | Plant response rating, Pigweed
22 | O=C1NCC(C#Cc2cccc(Cl)c2)C1C(=O)Nc1ccccc1F (stereo not drawn) [Compound 25, 4-[2-(3-chlorophenyl)ethynyl]N-(2-fluorophenyl)-2-oxo-3-pyrrolidinecarboxamide] | 0

Same assay, conditions: 500 g ai/ha, 0 to 100 scale

Row | SMILES | Plant response rating, Pigweed
23 | O=C1NCC(C#Cc2cccc(Cl)c2)C1C(=O)Nc1ccccc1F (stereo not drawn) [Compound 25, 4-[2-(3-chlorophenyl)ethynyl]N-(2-fluorophenyl)-2-oxo-3-pyrrolidinecarboxamide] | 20

Tested on: rice (Oryza sativa)
Experiment: Test B flooded paddy test, rice
Assay type: in vivo
Details: Flood, 250 g ai/ha; scale of 0 to 100 where 0 is no effect and 100 is complete control; 13 to 15 d
How it was run: as §2

Row | SMILES | Plant response rating, Rice
24 | O=C1NCC(C#Cc2cccc(Cl)c2)C1C(=O)Nc1ccccc1F (stereo not drawn) [Compound 25, 4-[2-(3-chlorophenyl)ethynyl]N-(2-fluorophenyl)-2-oxo-3-pyrrolidinecarboxamide] | 20

Tested on: galium (catchweed bedstraw, Galium aparine)
Experiment: Test A postemergence, galium
Assay type: in vivo
Details: 125 g ai/ha, 0 to 100 scale
How it was run: as §1

Row | SMILES | Plant response rating, Galium
25 | O=C1NCC(C#Cc2cccc(Cl)c2)C1C(=O)Nc1ccccc1F (stereo not drawn) [Compound 25, 4-[2-(3-chlorophenyl)ethynyl]N-(2-fluorophenyl)-2-oxo-3-pyrrolidinecarboxamide] | 0

Same assay, conditions: 500 g ai/ha, 0 to 100 scale

Row | SMILES | Plant response rating, Galium
26 | O=C1NCC(C#Cc2cccc(Cl)c2)C1C(=O)Nc1ccccc1F (stereo not drawn) [Compound 25, 4-[2-(3-chlorophenyl)ethynyl]N-(2-fluorophenyl)-2-oxo-3-pyrrolidinecarboxamide] | 60

Tested on: barnyardgrass (Echinochloa crus-galli)
Experiment: Test A postemergence, barnyardgrass
Assay type: in vivo
Details: 125 g ai/ha, 0 to 100 scale
How it was run: as §1

Row | SMILES | Plant response rating, Barnyardgrass
27 | O=C1NCC(C#Cc2cccc(Cl)c2)C1C(=O)Nc1ccccc1F (stereo not drawn) [Compound 25, 4-[2-(3-chlorophenyl)ethynyl]N-(2-fluorophenyl)-2-oxo-3-pyrrolidinecarboxamide] | 40

Same assay, conditions: 500 g ai/ha, 0 to 100 scale

Row | SMILES | Plant response rating, Barnyardgrass
28 | O=C1NCC(C#Cc2cccc(Cl)c2)C1C(=O)Nc1ccccc1F (stereo not drawn) [Compound 25, 4-[2-(3-chlorophenyl)ethynyl]N-(2-fluorophenyl)-2-oxo-3-pyrrolidinecarboxamide] | 70

Tested on: foxtail, giant (giant foxtail, Setaria faberii)
Experiment: Test A postemergence, foxtail, giant
Assay type: in vivo
Details: 125 g ai/ha, 0 to 100 scale
How it was run: as §1

Row | SMILES | Plant response rating, Foxtail, Giant
29 | O=C1NCC(C#Cc2cccc(Cl)c2)C1C(=O)Nc1ccccc1F (stereo not drawn) [Compound 25, 4-[2-(3-chlorophenyl)ethynyl]N-(2-fluorophenyl)-2-oxo-3-pyrrolidinecarboxamide] | 30

Same assay, conditions: 500 g ai/ha, 0 to 100 scale

Row | SMILES | Plant response rating, Foxtail, Giant
30 | O=C1NCC(C#Cc2cccc(Cl)c2)C1C(=O)Nc1ccccc1F (stereo not drawn) [Compound 25, 4-[2-(3-chlorophenyl)ethynyl]N-(2-fluorophenyl)-2-oxo-3-pyrrolidinecarboxamide] | 80

Tested on: pigweed (Amaranthus retroflexus)
Experiment: Test A preemergence, pigweed
Assay type: in vivo
Details: 125 g ai/ha, 0 to 100 scale
How it was run: as §1

Row | SMILES | Plant response rating, Pigweed
31 | O=C1NCC(C#Cc2cccc(Cl)c2)C1C(=O)Nc1ccccc1F (stereo not drawn) [Compound 25, 4-[2-(3-chlorophenyl)ethynyl]N-(2-fluorophenyl)-2-oxo-3-pyrrolidinecarboxamide] | 0

Same assay, conditions: 500 g ai/ha, 0 to 100 scale

Row | SMILES | Plant response rating, Pigweed
32 | O=C1NCC(C#Cc2cccc(Cl)c2)C1C(=O)Nc1ccccc1F (stereo not drawn) [Compound 25, 4-[2-(3-chlorophenyl)ethynyl]N-(2-fluorophenyl)-2-oxo-3-pyrrolidinecarboxamide] | 50

Tested on: wheat (Triticum aestivum)
Experiment: Test A postemergence, wheat
Assay type: in vivo
Details: 125 g ai/ha, 0 to 100 scale
How it was run: as §1

Row | SMILES | Plant response rating, Wheat
33 | O=C1NCC(C#Cc2cccc(Cl)c2)C1C(=O)Nc1ccccc1F (stereo not drawn) [Compound 25, 4-[2-(3-chlorophenyl)ethynyl]N-(2-fluorophenyl)-2-oxo-3-pyrrolidinecarboxamide] | 0

Same assay, conditions: 500 g ai/ha, 0 to 100 scale

Row | SMILES | Plant response rating, Wheat
34 | O=C1NCC(C#Cc2cccc(Cl)c2)C1C(=O)Nc1ccccc1F (stereo not drawn) [Compound 25, 4-[2-(3-chlorophenyl)ethynyl]N-(2-fluorophenyl)-2-oxo-3-pyrrolidinecarboxamide] | 0

Tested on: barnyardgrass (Echinochloa crus-galli)
Experiment: Test A preemergence, barnyardgrass
Assay type: in vivo
Details: 125 g ai/ha, 0 to 100 scale
How it was run: as §1

Row | SMILES | Plant response rating, Barnyardgrass
35 | O=C1NCC(C#Cc2cccc(Cl)c2)C1C(=O)Nc1ccccc1F (stereo not drawn) [Compound 25, 4-[2-(3-chlorophenyl)ethynyl]N-(2-fluorophenyl)-2-oxo-3-pyrrolidinecarboxamide] | 60

Same assay, conditions: 500 g ai/ha, 0 to 100 scale

Row | SMILES | Plant response rating, Barnyardgrass
36 | O=C1NCC(C#Cc2cccc(Cl)c2)C1C(=O)Nc1ccccc1F (stereo not drawn) [Compound 25, 4-[2-(3-chlorophenyl)ethynyl]N-(2-fluorophenyl)-2-oxo-3-pyrrolidinecarboxamide] | 90
